Values quoted from earlier work in patent US20100256082A1, “Metallo-hydrolase inhibitors using metal binding moietes in combination with targeting moieties” (Viamet Pharmaceuticals, Inc., priority 2006, published 2010).

What was measured:
[1] = tested on: RDP; settings: read-out: 50% inhibitory concentration; reversible, competitive inhibitor of RDP
[2] = target: PDE3A (Homo sapiens, UniProt Q14432, T844A); settings: T844 to Ala mutant versus PDE3A
Sequence of PDE3A (Q14432 whole entry T844A): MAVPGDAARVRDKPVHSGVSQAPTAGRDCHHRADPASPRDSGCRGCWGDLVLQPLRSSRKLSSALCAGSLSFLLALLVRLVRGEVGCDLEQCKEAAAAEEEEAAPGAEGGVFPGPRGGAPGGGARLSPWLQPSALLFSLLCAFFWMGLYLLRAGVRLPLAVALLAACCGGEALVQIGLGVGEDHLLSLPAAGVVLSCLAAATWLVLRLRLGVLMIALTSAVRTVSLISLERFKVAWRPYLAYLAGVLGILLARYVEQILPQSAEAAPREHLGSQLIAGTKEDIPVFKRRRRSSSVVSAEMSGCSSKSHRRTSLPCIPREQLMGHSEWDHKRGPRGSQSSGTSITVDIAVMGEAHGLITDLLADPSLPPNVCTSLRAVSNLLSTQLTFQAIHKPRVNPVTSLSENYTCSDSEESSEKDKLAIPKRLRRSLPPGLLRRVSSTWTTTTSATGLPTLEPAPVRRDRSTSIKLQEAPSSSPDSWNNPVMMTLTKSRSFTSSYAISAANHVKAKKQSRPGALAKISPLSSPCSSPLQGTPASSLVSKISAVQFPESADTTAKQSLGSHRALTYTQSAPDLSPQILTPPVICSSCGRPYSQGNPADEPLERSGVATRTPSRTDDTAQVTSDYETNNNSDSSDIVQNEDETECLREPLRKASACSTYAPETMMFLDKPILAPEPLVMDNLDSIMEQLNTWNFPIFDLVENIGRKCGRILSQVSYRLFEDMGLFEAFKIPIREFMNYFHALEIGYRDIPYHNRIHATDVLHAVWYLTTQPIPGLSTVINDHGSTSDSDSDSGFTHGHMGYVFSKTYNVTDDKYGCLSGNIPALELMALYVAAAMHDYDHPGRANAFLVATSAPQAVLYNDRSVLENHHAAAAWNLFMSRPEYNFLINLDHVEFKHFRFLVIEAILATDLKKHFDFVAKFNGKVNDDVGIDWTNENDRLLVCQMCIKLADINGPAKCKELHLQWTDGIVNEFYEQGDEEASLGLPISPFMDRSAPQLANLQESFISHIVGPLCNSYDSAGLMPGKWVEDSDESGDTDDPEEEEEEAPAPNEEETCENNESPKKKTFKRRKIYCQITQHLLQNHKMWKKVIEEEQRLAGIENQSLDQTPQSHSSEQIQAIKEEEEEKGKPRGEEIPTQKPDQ

CC1(C)C[C@@H]1C(=O)N/C(=C\CCCCSC[C@H](N)C(=O)O)C(=O)O [Cilastatin]
IC50 [1]: 50.1 mM

Nc1nc2c(ncn2[C@@H]2O[C@@H]3COP(=O)(O)O[C@H]3[C@H]2O)c(=O)[nH]1 [cGMP]
effect of mutation of T844 to Ala in PDE3A on the K [2]: no effect

O=C1CCc2cc(OCCCCc3nnnn3C3CCCCC3)ccc2N1 [cilostazol]
increase in Ki on mutation of T844 to Ala in PDE3A [2]: 25 fold

Cc1[nH]c(=O)c(C#N)cc1-c1ccncc1 [milrinone]
effect of mutation of T844 to Ala in PDE3A on the K [2]: no effect
